Results as given in paper PMC10805311, “Pseudomonas aeruginosa two-component system CprRS regulates HigBA expression and bacterial cytotoxicity in response to LL-37 stress” (PLOS Pathogens, 2024).
In brackets after ≈: the same amount, converted by molar mass. Like-named read-outs stand apart in the source and are kept apart here. Residues, ends and D or L forms follow the SMILES beside them. No end group written: not given here.

Key:
[1] = target: CprS periplasmic sensor domain CprSSD (residues 28-163) (Pseudomonas aeruginosa); assay: MST; 100 nM His-tagged CprS labelled with Monolith His-Tag Labelling Kit RED-tris-NTA 2nd Generation; cationic peptides in 16 doubling dilutions from 500 uM (0.5 mM) in PBST; incubated at 25 C for 30 min; Monolith NT.115; repeated three times
[2] = target: full-length CprS (CprSFL), sensor histidine kinase of the two-component system CprRS (Pseudomonas aeruginosa); assay: as above
[3] = test system: P. aeruginosa PAO1 strain H103; conditions: cited from earlier work
From the text: TCSs represent the most common signal-transduction cascades in bacteria, sensing external cues such as ions, peptides, and compounds [46, 47]. Canonical TCSs comprise a transmembrane sensor histidine kinase (HK) and an intracellular response regulator (RR). Upon binding to specific stimuli, the HK undergoes autophosphorylation and transfers the phosphoryl group to the RR, activating its transcription regulation ability to influence bacterial behavior. To date, over 60 TCSs have been identified in the P. aeruginosa PAO1 genome, they have been recognized as crucial players in various b ...

[4] = test system: WT P. aeruginosa; assay: microbe, parasite or virus in culture; type: cell-based; conditions: 37°C; for MIC: without LL-37, LB medium, OD600 = 0.1, 24 h; for MIC (+ LL-37): antibiotic + LL-37 (LL-37 pretreatment), LB medium, 24 h
Experimental: (§1) The initial concentrations of meropenem, cephalosporin, tetracycline, gentamicin, ciprofloxacin, polymyxin B, and colistin are: 0.1 mg/mL, 0.02 mg/mL, 0.5 mg/mL, 0.16 mg/mL, 1 mg/mL, 0.1 mg/mL, and 0.1 mg/mL, all the antibiotics were 10 × gradient dilution with sterile PBS buffer. Overnight bacterial cultures of WT P. aeruginosa and mutants were re-inoculated into fresh LB medium supplemented at OD600 = 0.1, then 90 μL cultures and 10 μL antibiotic dilutions were added in a 96-well microtiter dish for 24 h at 37°C.

[5] = test system: full-length CprS (CprSFL); assay: Microscale thermophoresis (MST), full-length CprS; type: binding, P. aeruginosa; conditions: 100 nM CprS, cationic peptides from 500 μM, 25°C 30 min
Experimental: The E. coli BL21 (DE3) strains harboring pET22b-cprS and pET22b-cprR were cultured at 37°C in LB medium and suppled with 0.4 mM IPTG as the OD600 reached to 0.8. The cultures were incubated at 16°C for an additional 14 h and the cells were collected and resuspended in buffer A (20 mM tris-HCl (pH 8.0), 150 mM NaCl). The cells were lysed by ultrasound and centrifuged at 15, 000 rpm for 20 min at 4°C. Then the supernatant was applied to Ni-agarose resins and eluted with buffer containing 300 mM imidazole. As for full-length CprS, the supernatant needed to be extracted by 2% ELUGENT Detergent and flow 0.02% DDM for elution. The target proteins were further purified via AKTA purifier using buffer A and concentrated to 12 mg/mL.
The 100 nM CprS with His-tag was labeled with Monolith His-Tag Labelling Kit RED-tris-NTA 2nd Generation Kit and the cationic peptides used in this work were diluted with PBST buffer gradient from 0.5 mM [34]. The proteins and cationic peptide dilutions were mixed and incubated at 25°C for 30 min and detected on a Monolith NT.115 instrument. The data were analyzed by NanoTemper Analysis 1.2.20 software.

[6] = test system: cprS; assay: qRT-PCR, cprS transcription; type: cell-based, P. aeruginosa; conditions: oprL as normalizer
Experimental: (§2) Overnight bacterial cultures were subcultured in fresh LB medium to OD600 0.8 and the cells were collected by using Trizol. The cDNA was synthesized by using PrimeScript RT reagent Kit. 2 × SYBR qPCR Master Mix was used to perform qPCR assays. The reaction step was 2 × SYBR qPCR Master Mix (Without ROX) 10 μL, upstream Primer (10 μM) 0.4 μL, downstream Primer (10 μM) 0.4 μL, template cDNA 1 μg and ddH2O up to 20 μL. The qPCR procedure was set as: stage 1 (95°C 30 s, repeat once), stage 2 (95°C 10 s, 60°C 30 s, repeat for 40 times) and stage 3 (95°C 15 s, 60°C 1 min, 95°C 15 s, repeat 1 time). The oprL gene was used as a normalizer. The same method was used for mammalian cells, and 18 sRNA served as a normalizer.

[7] = test system: cprR; assay: qRT-PCR, cprR transcription; type: cell-based, P. aeruginosa; conditions: oprL as normalizer
Experimental: as §2

[8] = test system: P. aeruginosa ΔcprR; type: cell-based; conditions: 37°C; for MIC (+ LL-37): antibiotic + LL-37 (LL-37 pretreatment), LB medium, 24 h; for MIC: without LL-37, LB medium, OD600 = 0.1, 24 h
Experimental: as §1

[9] = test system: P. aeruginosa ΔcprS; type: cell-based; conditions: 37°C; for MIC (+ LL-37): antibiotic + LL-37 (LL-37 pretreatment), LB medium, 24 h; for MIC: without LL-37, LB medium, OD600 = 0.1, 24 h
Experimental: as §1

[10] = test system: CarSR system; conditions: Vibrio cholerae; cited from earlier work
From the text: In the field of microbiology and immunology, the interaction between host antimicrobial peptides and pathogenic bacteria has been a subject of extensive research. The success of bacterial infections depends on a delicate balance of signals exchanged between microbes and hosts. Cationic antimicrobial peptides, including defensins such as α-defensins, β-defensins, and cathelicidin LL-37, are crucial components of innate host defense against bacterial infections. Numerous studies have shown that LL-37 acts as a shield between the host and the external environment, preventing bact ...

[11] = Pseudomonas aeruginosa, read-out: MIC

For human host defense peptide LL-37, the Kd [1] was 5.34 µM and the Kd [2] was 1.41 µM.

In the case of “indolicidin: cationic peptide antibiotic (ILPWKWPWWPWRR; ends and bridges not checked; UniProt P33046 131-143, looked up)”, the CprRS-mediated adaptive resistance [3] is listed as “adaptive resistance”.

Molecule `O=C(O)c1cn(C2CC2)c2cc(N3CCNCC3)c(F)cc2c1=O` [CIP, ciprofloxacin] has an MIC [4, 11] of 2 µg/mL (≈ 6.04 µM).

`C[C@@H](O)[C@H]1C(=O)N2C(C(=O)O)=C(S[C@@H]3CN[C@H](C(=O)N(C)C)C3)[C@H](C)[C@H]12` [MEM, Meropenem] gave an MIC [4, 11] of 10 µg/mL (≈ 26.1 µM).

For `CC[C@H](C)CCCCC(=O)N[C@@H](CCN)C(=O)N[C@H](C(=O)N[C@@H](CCN)C(=O)N[C@H]1CCNC(=O)[C@H]([C@@H](C)O)NC(=O)[C@H](CCN)NC(=O)[C@H](CCN)NC(=O)[C@H](CC(C)C)NC(=O)[C@@H](Cc2ccccc2)NC(=O)[C@H](CCN)NC1=O)[C@@H](C)O` [Polymyxin B] (HELM PEPTIDE1{[CC[C@H](C)CCCCC(=O)[*:2]].[Dab].T.[Dab].[Dab].[Dab].[dF].L.[Dab].[Dab].T}$PEPTIDE1,PEPTIDE1,5:R3-11:R2$$$V2.0; N-terminus assumed; bridges inferred), the “binding to CprS” value [5] was “no binding was observed”, the “expression of cprS under Polymyxin B treatment” value [6] was “no significant change in expression was observed” and the “expression of cprR under Polymyxin B treatment” value [7] was “no significant change in expression was observed”. The “MIC (+ LL-37)” value [4] was 64 µg/mL, the MIC [4] was 4 µg/mL (≈ 3.32 µM) and the “MIC (+ LL-37)” value [8] was 1 µg/mL. The MIC [8] was 2 µg/mL (≈ 1.66 µM), the “MIC (+ LL-37)” value [9] was 1 µg/mL and the MIC [9] was 2 µg/mL (≈ 1.66 µM). For the same molecule, the CprRS-mediated adaptive resistance [3] was “adaptive resistance”.

With `CC[C@H](C)CCCCC(=O)N[C@@H](CCN)C(=O)N[C@H](C(=O)N[C@@H](CCN)C(=O)N[C@H]1CCNC(=O)[C@H]([C@@H](C)O)NC(=O)[C@H](CCN)NC(=O)[C@H](CCN)NC(=O)[C@H](CC(C)C)NC(=O)[C@@H](CC(C)C)NC(=O)[C@H](CCN)NC1=O)[C@@H](C)O` [colistin, Colistin] (HELM PEPTIDE1{[CC[C@H](C)CCCCC(=O)[*:2]].[Dab].T.[Dab].[Dab].[Dab].[dL].L.[Dab].[Dab].T}$PEPTIDE1,PEPTIDE1,5:R3-11:R2$$$V2.0; N-terminus assumed; bridges inferred) the “binding to CprS” value [5] was “no binding was observed”, the “MIC (+ LL-37)” value [4] was 64 µg/mL and the MIC [4] was 4 µg/mL (≈ 3.42 µM). The “MIC (+ LL-37)” value [8] was 1 µg/mL, the MIC [8] was 1 µg/mL (≈ 0.855 µM) and the “MIC (+ LL-37)” value [9] was 0.5 µg/mL. For the same molecule, the MIC [9] was 1 µg/mL (≈ 0.855 µM).

In the case of `CN(C)[C@@H]1C(O)=C(C(N)=O)C(=O)[C@@]2(O)C(O)=C3C(=O)c4c(O)cccc4[C@@](C)(O)[C@H]3C[C@@H]12` [TE, Tetracycline], the MIC [4, 11] is reported as 3.2 µg/mL (≈ 7.2 µM).

`CNC(C)C1CCC(N)C(OC2C(N)CC(N)C(OC3OCC(C)(O)C(NC)C3O)C2O)O1` (stereo not shown) [GM, Gentamicin] gave an MIC [4, 11] of 12.5 µg/mL (≈ 26.2 µM).

B1: α-defensin 5: human enteric α-defensin 5 (peptide, UniProt Q01523 20-94, looked up)
Defensin alpha 5: ESLQERADEATTQKQSGEDNQDLAISFAGNGLSALRTSGSQARATCYCRTGRCATRESLSGVCEISGRLYRLCCR
modifications: Defensin-5
In the case of B1, the “sensing by CarSR” value [10] is given as “sense human enteric α-defensin 5 and LL-37 to promote bacterial pathogenicity”.
